These results are taken from patent US8653087B2, “Pyrido [5, 4-D] pyrimidines as cell proliferation inhibitors” (Boehringer Ingelheim International GmbH, priority 2008, dated 2014).

SMILES strings stand for the structures.

B-Raf (V600E)-kinase, sequence (P15056 whole entry V600E): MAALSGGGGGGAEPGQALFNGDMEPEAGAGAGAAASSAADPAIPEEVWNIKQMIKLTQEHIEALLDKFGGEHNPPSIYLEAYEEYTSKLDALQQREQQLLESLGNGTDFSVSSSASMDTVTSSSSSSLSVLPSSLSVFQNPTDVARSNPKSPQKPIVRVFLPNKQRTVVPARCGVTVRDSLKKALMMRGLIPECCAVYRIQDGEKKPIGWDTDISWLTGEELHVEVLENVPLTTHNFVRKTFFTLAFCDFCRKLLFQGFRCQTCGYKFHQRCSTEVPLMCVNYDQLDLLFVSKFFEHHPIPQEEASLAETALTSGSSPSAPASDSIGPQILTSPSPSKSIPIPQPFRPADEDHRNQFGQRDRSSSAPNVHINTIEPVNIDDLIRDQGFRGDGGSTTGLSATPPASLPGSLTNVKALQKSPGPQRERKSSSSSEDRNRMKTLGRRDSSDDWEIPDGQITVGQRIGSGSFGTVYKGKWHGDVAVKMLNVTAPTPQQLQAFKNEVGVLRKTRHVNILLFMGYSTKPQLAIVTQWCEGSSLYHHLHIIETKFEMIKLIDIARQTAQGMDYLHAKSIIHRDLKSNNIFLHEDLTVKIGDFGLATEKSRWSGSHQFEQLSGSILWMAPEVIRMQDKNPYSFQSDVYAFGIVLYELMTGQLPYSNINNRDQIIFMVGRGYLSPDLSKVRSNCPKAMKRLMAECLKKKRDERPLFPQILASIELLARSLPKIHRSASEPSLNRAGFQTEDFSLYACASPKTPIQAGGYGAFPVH

The first experiment has as its target B-Raf (V600E)-kinase (Homo sapiens (Human), UniProt P15056, V600E). Put plainly: Kinase test B-RAF (V600E). Format: biochemical.
Conditions: not given
A digest of the protocol:
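Read-out is DELFIA europium TRF of phospho-MEK (Ser217/221) on biotinylated MEK1 bound to streptavidin plates, IC50 from dose-response. Reaction ran 60 min at RT with 250 μM ATP, after a 24 h RT preincubation of compound with B-Raf (V600E) kinase, 5% DMSO final.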
For `Cc1ccc(C(=O)Nc2ccc(C#N)c(C(F)(F)F)c2)cc1Nc1ncnc2cnc(N3CCN(C)CC3)nc12` [III-311], half-maximal inhibition (IC50) was put at 2 nM.

Staying with this experiment, now noted: B-RAF (V600E) kinase test, 250 μM ATP.
Regarding `COc1c(NC(=O)c2ccc(C)c(Nc3ncnc4cnc(N5CC[C@H](F)C5)nc34)c2)cc(C(C)(C)C)cc1NS(C)(=O)=O` [III-295], the IC50 came out at 17 nM.

The molecule `Cc1ccc(C(=O)Nc2nnc(C(F)(F)F)s2)cc1Nc1ncnc2cnc(N3CCN(C)CC3)nc12` [III-296] had a concentration for half-maximal inhibition (IC50) of 198 nM.

`Cc1ccc(C(=O)Nc2ccc(F)c(C(F)(F)F)c2)cc1Nc1ncnc2cnc(N3CCN(C)CC3)nc12` [III-297] displayed an IC50 of 1 nM.

The molecule `Cc1ccc(C(=O)Nc2cccc(C(F)(F)F)c2)cc1Nc1ncnc2cnc(N3CCN(C)CC3)nc12` [III-298] had a half-maximal inhibitory concentration (IC50) of 1 nM.

Regarding `COc1ccc(C(F)(F)F)cc1NC(=O)c1ccc(C)c(Nc2ncnc3cnc(N4CCN(C)CC4)nc23)c1` [III-299], the IC50 was found to be 5 nM.

Molecule `Cc1ccc(C(=O)Nc2ccc(Cl)c(C(F)(F)F)c2)cc1Nc1ncnc2cnc(N3CCN(C)CC3)nc12` [III-300] came in with an IC50 of 4 nM.

`Cc1ccc(C(=O)Nc2cccc(OC(F)(F)F)c2)cc1Nc1ncnc2cnc(N3CCN(C)CC3)nc12` [III-301] showed an IC50 below 1 nM.

With `Cc1ccc(C(=O)NCc2ccc(C(C)(C)C)cc2)cc1Nc1ncnc2cnc(N3CCOCC3)nc12` [III-302], half-maximal inhibition (IC50) was put at 115 nM.

Take `Cc1ccc(C(=O)Nc2cccc(S(=O)(=O)N(C)C)c2)cc1Nc1ncnc2cnc(N3CCN(C)CC3)nc12` [III-303]: half-maximal inhibition (IC50) was put at 7 nM.

On to `COc1ccc(C(F)(F)F)cc1NC(=O)c1ccc(C)c(Nc2ncnc3cnc(N4CCOCC4)nc23)c1` [III-304], for which the half-maximal inhibitory concentration (IC50) is below 1 nM.

For `Cc1ccc(C(=O)Nc2cccc(C(C)(C)C#N)c2)cc1Nc1ncnc2cnc(N3CCN(C)CC3)nc12` [III-305], the IC50 is 2 nM.

`COc1ccc(C(C)(C)C)cc1NC(=O)c1ccc(C)c(Nc2ncnc3cnc(N4CCOCC4)nc23)c1` [III-306]: half-maximal inhibition (IC50) was put at 4 nM.

The molecule `Cc1ccc(C(=O)NCc2ccc(C(F)(F)F)cc2)cc1Nc1ncnc2cnc(N3CCOCC3)nc12` [III-307] yielded an IC50 of 114 nM.

`Cc1ccc(C(=O)NCc2cccc(C(C)(C)C)c2)cc1Nc1ncnc2cnc(N3CCCCC3)nc12` [III-308] showed an IC50 of 47 nM.

`Cc1ccc(C(=O)Nc2cccc(N(C)C)c2)cc1Nc1ncnc2cnc(N3CCOCC3)nc12` [III-309]: the half-maximal inhibitory concentration (IC50) was 4 nM.

In the case of `Cc1ccc(C(=O)NCc2cccc(C(C)(C)C)c2)cc1Nc1ncnc2cnc(N3CCN(C)CC3)nc12` [III-310], 50 nM corresponded to half-maximal inhibition (IC50).

Turning to `Cc1ccc(C(=O)Nc2nnc(C(F)(F)F)s2)cc1Nc1ncnc2cnc(N3CCOCC3)nc12` [III-313], half-maximal inhibition (IC50) was put at 200 nM.

Molecule `Cc1ccc(C(=O)Nc2ccc(F)c(C(F)(F)F)c2)cc1Nc1ncnc2cnc(N3CCOCC3)nc12` [III-314] returned an IC50 of 9 nM.

In turn, `Cc1ccc(C(=O)Nc2cccc(C(F)(F)F)c2)cc1Nc1ncnc2cnc(N3CCOCC3)nc12` [III-315] came in with an IC50 below 1 nM.

In turn, `CN(C)CCN(C)c1ncc2ncnc(Nc3cc(C(=O)Nc4cc(C(C)(C)C)on4)ccc3F)c2n1` [III-316] registered an IC50 of 3 nM.

With `CN(CCN1CCCC1)c1ncc2ncnc(Nc3cc(C(=O)Nc4cc(C(C)(C)C)on4)ccc3F)c2n1` [III-317], the IC50 is 14 nM.

With `CN1CCN(c2ncc3ncnc(Nc4cc(C(=O)Nc5cc(C(C)(C)C)on5)ccc4F)c3n2)CC1` [III-318], the concentration for half-maximal inhibition (IC50) stood at 2 nM.

For the molecule `Cc1ccc(C(=O)Nc2cccc(S(=O)(=O)N(C)C)c2)cc1Nc1ncnc2cnc(N3CCOCC3)nc12` [III-320], inhibition was half-maximal at 2 nM (IC50).

For `Cc1ccc(C(=O)Nc2cc(C(F)(F)F)ccn2)cc1Nc1ncnc2cnc(N3CCOCC3)nc12` [III-321], the 50% inhibitory concentration (IC50) was below 1 nM.

Regarding `Cc1ccc(C(=O)Nc2cccc(C(C)(C)C#N)c2)cc1Nc1ncnc2cnc(N3CCOCC3)nc12` [III-322], the half-maximal inhibitory concentration (IC50) worked out at 1 nM.

With `COc1c(NC(=O)c2ccc(C)c(Nc3ncnc4cnc(N5CCOCC5)nc34)c2)cc(C(C)(C)C)cc1NS(C)(=O)=O` [III-323], half-maximal inhibition (IC50) was put at 11 nM.

For the molecule `Cc1ccc(C(=O)NCc2cccc(C(F)(F)F)c2)cc1Nc1ncnc2cnc(N3CCOCC3)nc12` [III-324], the IC50 is 55 nM.

Turning to `Cc1ccc(C(=O)NC2CCCCC2)cc1Nc1ncnc2cnc(N3CCOCC3)nc12` [III-325], the midpoint of inhibition, the IC50, lay at 1400 nM.

`Cc1ccc(C(=O)Nc2ccccc2)cc1Nc1ncnc2cnc(N3CCOCC3)nc12` [III-326]: the half-inhibitory concentration (IC50) was 292 nM.

`Cc1ccc(C(=O)NCc2cccc(C(C)(C)C)c2)cc1Nc1ncnc2cnc(N3CCOCC3)nc12` [III-327] yielded an IC50 of 56 nM.

`Cc1ccc(C(=O)Nc2nnc(C(F)(F)F)s2)cc1Nc1ncnc2cnc(N3CCCCC3)nc12` [III-328] displayed a half-inhibitory concentration (IC50) of 442 nM.

For the molecule `Cc1ccc(C(=O)Nc2ccc(F)c(C(F)(F)F)c2)cc1Nc1ncnc2cnc(N3CCCCC3)nc12` [III-329], the IC50 was determined as 17 nM.

The molecule `Cc1ccc(C(=O)Nc2cccc(C(F)(F)F)c2)cc1Nc1ncnc2cnc(N3CCCCC3)nc12` [III-330] gave an IC50 of 6 nM.

Regarding `Cc1ccc(C(=O)Nc2ccc(Cl)c(C(F)(F)F)c2)cc1Nc1ncnc2cnc(N3CCCCC3)nc12` [III-331], the half-inhibitory concentration (IC50) worked out at 10 nM.

`Cc1ccc(C(=O)Nc2cccc(OC(F)(F)F)c2)cc1Nc1ncnc2cnc(N3CCCCC3)nc12` [III-332] registered an IC50 of 4 nM.

Regarding `Cc1ccc(C(=O)Nc2ccc(C#N)c(C(F)(F)F)c2)cc1Nc1ncnc2cnc(N3CCCCC3)nc12` [III-333], the 50% inhibitory concentration (IC50) came out at 56 nM.

The molecule `Cc1ccc(C(=O)Nc2cccc(S(=O)(=O)N(C)C)c2)cc1Nc1ncnc2cnc(N3CCCCC3)nc12` [III-334] gave a half-inhibitory concentration (IC50) of 10 nM.

For the molecule `Cc1ccc(C(=O)Nc2cc(C(F)(F)F)ccn2)cc1Nc1ncnc2cnc(N3CCCCC3)nc12` [III-335], it took 8 nM to reach half-maximal inhibition (IC50).

In turn, `Cc1ccc(C(=O)NCc2cccc(C(C)(C)C)c2)cc1Nc1ncnc2cnc(N3CCCN(C)CC3)nc12` [III-336] yielded an IC50 of 140 nM.

In the case of `Cc1ccc(C(=O)Nc2ccc(Cl)c(C(F)(F)F)c2)cc1Nc1ncnc2cnc(N3CCOCC3)nc12` [III-337], half-maximal inhibition (IC50) required 2 nM.

For `COc1c(NC(=O)c2ccc(C)c(Nc3ncnc4cnc(N5CCCCC5)nc34)c2)cc(C(C)(C)C)cc1NS(C)(=O)=O` [III-338], the IC50 came out at 41 nM.

Consider `Cc1ccc(C(=O)Nc2cccc(C(F)(F)F)c2)cc1Nc1ncnc2cnc(N3CCNCC3)nc12` [III-339], for which half-maximal inhibition (IC50) required 1 nM.

`Cc1ccc(C(=O)Nc2ccc(C#N)c(C(F)(F)F)c2)cc1Nc1ncnc2cnc(N3CCOCC3)nc12` [III-340] gave an IC50 of 4 nM.

In the case of `Cc1ccc(C(=O)Nc2cccc(C(C)(C)C)c2)cc1Nc1ncnc2cnc(N3CCNCC3)nc12` [III-341], the IC50 is below 1 nM.

Regarding `Cc1ccc(C(=O)Nc2nnc(C(F)(F)F)s2)cc1Nc1ncnc2cnc(N3CCNCC3)nc12` [III-342], half-maximal inhibition (IC50) was put at 2120 nM.

As to `COc1ccc(C(C)(C)C)cc1NC(=O)c1ccc(C)c(Nc2ncnc3cnc(N4CCNCC4)nc23)c1` [III-343], it took 2 nM to reach half-maximal inhibition (IC50).

As for `Cc1ccc(C(=O)Nc2cccc(S(=O)(=O)N(C)C)c2)cc1Nc1ncnc2cnc(N3CCNCC3)nc12` [III-344], the IC50 was 7 nM.

As for `Cc1ccc(C(=O)Nc2cc(C(F)(F)F)ccn2)cc1Nc1ncnc2cnc(N3CC[C@H](F)C3)nc12` [III-345], 1 nM corresponded to half-maximal inhibition (IC50).

`COc1ccc(C(F)(F)F)cc1NC(=O)c1ccc(C)c(Nc2ncnc3cnc(NC4CCOC4)nc23)c1` (stereo not shown) [III-347] gave an IC50 of 1 nM.

On to `Cc1ccc(C(=O)Nc2cc(C(C)(C)C)nn2C)cc1Nc1ncnc2cnc(NC3CCOC3)nc12` (stereo not shown) [III-348], for which the IC50 was below 1 nM.

The molecule `Cc1ccc(C(=O)Nc2cccc(C(F)(F)F)c2)cc1Nc1ncnc2cnc(NC3CCOC3)nc12` (stereo not shown) [III-349] had an IC50 below 1 nM.

`Cc1ccc(C(=O)Nc2cccc(C(C)(C)C)c2)cc1Nc1ncnc2cnc(NC3CCOC3)nc12` (stereo not shown) [III-350] came in with an IC50 below 1 nM.

In the case of `CCN1CCN(c2cc(NC(=O)c3ccc(C)c(Nc4ncnc5cnc(NC6CCOC6)nc45)c3)cc(C(F)(F)F)c2)CC1` (stereo not shown) [III-351], the half-inhibitory concentration (IC50) is below 1 nM.

For `Cc1ccc(C(=O)Nc2cc(C(C)(C)C)n[nH]2)cc1Nc1ncnc2cnc(NC3CCOC3)nc12` (stereo not shown) [III-353], the IC50 was below 1 nM.

Turning to `Cc1ccc(C(=O)n2nc(C(C)(C)C)cc2N)cc1Nc1ncnc2cnc(NC3CCOC3)nc12` (stereo not shown) [III-354], it took 20 nM to reach half-maximal inhibition (IC50).

`Cc1ccc(C(=O)Nc2cc(C(F)(F)F)ccn2)cc1Nc1ncnc2cnc(NC3CCOC3)nc12` (stereo not shown) [III-355] had an IC50 below 1 nM.

In turn, `COc1ccc(NC(=O)c2ccc(C)c(Nc3ncnc4cnc(NC5CCOC5)nc34)c2)cc1C(F)(F)F` (stereo not shown) [III-356] returned a half-inhibitory concentration (IC50) below 1 nM.

`Cc1ccc(C(=O)Nc2cc(C(C)(C)C)on2)cc1Nc1ncnc2cnc(NC3CCOC3)nc12` (stereo not shown) [III-357] showed a concentration for half-maximal inhibition (IC50) below 1 nM.

Turning to `COCCNc1ncc2ncnc(Nc3cc(C(=O)Nc4cc(C(C)(C)C)on4)ccc3C)c2n1` [III-358], the IC50 worked out at 1 nM.

On to `Cc1ccc(C(=O)Nc2cc(C(C)(C)C)on2)cc1Nc1ncnc2cnc(NCC3CCOC3)nc12` (stereo not shown) [III-359], for which 2 nM corresponded to half-maximal inhibition (IC50).

Consider `Cc1ccc(C(=O)Nc2cc(C(C)(C)C)on2)cc1Nc1ncnc2cnc(N(C)CC3CCOC3)nc12` (stereo not shown) [III-360], for which the IC50 was 3 nM.

The molecule `Cc1ccc(C(=O)Nc2cc(C(C)(C)C)on2)cc1Nc1ncnc2cnc(NCC3CCCCO3)nc12` (stereo not shown) [III-361] returned an IC50 of 2 nM.

On to `COC[C@@H]1CCCN1c1ncc2ncnc(Nc3cc(C(=O)Nc4cc(C(C)(C)C)on4)ccc3C)c2n1` [III-362], for which the concentration for half-maximal inhibition (IC50) stood at 3 nM.

Turning to `Cc1ccc(C(=O)Nc2cc(C(C)(C)C)on2)cc1Nc1ncnc2cnc(N3CCC[C@H]3CO)nc12` [III-363], the IC50 was below 1 nM.

The molecule `Cc1ccc(C(=O)Nc2cc(C(C)(C)C)on2)cc1Nc1ncnc2cnc(N(C)C3CCOC3)nc12` (stereo not shown) [III-365] showed a concentration for half-maximal inhibition (IC50) of 1 nM.

Take `Cc1ccc(C(=O)Nc2cc(C(C)(C)C)on2)cc1Nc1ncnc2cnc(N3CC(F)(F)C3)nc12` [III-366]: the IC50 turned out to be 6 nM.
